Results as given in US20220306986A1, “NON-INVASIVE METHODS FOR SELECTIVELY ENRICHING PLURIPOTENT CELLS” (MEMORIAL SLOAN-KETTERING CANCER CENTER, priority 2019, published 2022).

Tests used:
Format in all cases: cell-based, mouse
ESCs [1] = experiment: Colony formation assay (alkaline phosphatase staining) after pulse treatment
Procedure: For transient glutamine withdrawal (“pulse”) experiments, cells were initially plated in standard S/L medium as described above. The following day, cells were washed with PBS and then changed to experimental medium containing a 1:1 mix of glutamine-free DMEM and glutamine-free Neurobasal medium including 10% dialyzed FBS, 2-mercaptoethanol, LIF, and containing (“Ctrl”) or lacking (“Pulse”) L-glutamine as indicated. 24 hours later, cells were washed with PBS and then returned to glutamine-replete medium (“Recover”). 24 hours later, cells were subjected to either image analysis, flow cytometry, or plated for colony formation assays as indicated. For glutamine pulse experiments in human ESCs, cells were initially plated at a density of 300,000 cells/well in a tissue-culture treated polystyrene 12-well plate coated with vitronectin (Thermo Fisher Scientific, A14700) in E8 medium (Thermo Fisher Scientific, A1517001) containing 10 uM ROCK inhibitor Y-27632 (Selleck Chemicals S1049). 24 hrs after plating, medium was changed to modified E8 medium containing: DMEM high glucose without glutamine (Thermo Fisher 11960044), 10.7 mg/L Transferrin (Sigma T0665), 64 mg/L L-Ascorbic Acid (Sigma A890), 14 ug/L Sodium Selenite (Sigma S5261), 543 mg/L Sodium Bicarbonate (Research Products International 144558), 19.4 mg/L insulin (Sigma 19278), 100 ug/L bFGF (EMD Millipore GF003AF), 2 ug/L TGFβ1 (Peprotech 10021), and 2 mM L-glutamine. After 24 hrs of culture in modified E8 medium, medium was changed to modified E8 medium containing 2 mM or 0 mM L-glutamine for 24 hrs. All cells were then changed to modified E8 medium containing 2 mM L-glutamine and cultured for 24 hrs before harvest for analysis. […] For ESC colony formation assays, colonies were scored manually in a blinded fashion. For reprogramming experiments, alkaline-phosphatase colonies were scored automatically using ImageJ (NIH). Briefly, images of each well were binarized using the Default function and particles greater than 8 pixels with a circularity of 0.7-1.0 were counted.

ESCs [2] = experiment: Glutamine deprivation: growth curves, viability and colony formation; settings: DM-αKG 4 mM
Procedure: For glutamine deprivation experiments in mouse ESCs, cells were initially plated in standard S/L medium as described above. The following day, cells were washed with PBS and then cultured in experimental medium containing a 1:1 mix of glutamine-free DMEM (Gibco 11960-051) and glutamine-free Neurobasal medium (Gibco 21103-049) including 10% dialyzed FBS, 2-mercaptoethanol, and LIF as described above and containing (“+Q”) or lacking (“−Q”) L-glutamine (2 mM) as indicated. When indicated, dimethyl-α-ketoglutarate (Sigma 349631) dissolved in DMSO was added to a final concentration of 4 mM. […]
ESCs were seeded at a density of 30,000-40,000 cells per well of a 12-well plate. The following day, three wells of each line were counted to determine the starting cell number. […] Cells were counted on the indicated days thereafter using a Beckman Multisizer 4e with a cell volume gate of 400-10,000 fL. […]
Evaluation of cell viability and Nanog-GFP expression. […] Cells were evaluated for GFP and DAPI on either a LSRFortessa or LSR-II machine and FACSDiva software ([…] Dickinson). […] Nanog-GFP expression was measured by GFP mean fluorescence intensity and quantified using FlowJo v9.0. […]

Nanog-GFP ESCs = experiment: Nanog-GFP expression by flow cytometry after pulse treatment; settings: 24 h pulse in glutamine-containing S/L medium, 24 h recovery; FIG. 7E-7F
Procedure: For transient glutamine withdrawal (“pulse”) experiments, cells were initially plated in standard S/L medium as described above. The following day, cells were washed with PBS and then changed to experimental medium containing a 1:1 mix of glutamine-free DMEM and glutamine-free Neurobasal medium including 10% dialyzed FBS, 2-mercaptoethanol, LIF, and containing (“Ctrl”) or lacking (“Pulse”) L-glutamine as indicated. 24 hours later, cells were washed with PBS and then returned to glutamine-replete medium (“Recover”). 24 hours later, cells were subjected to either image analysis, flow cytometry, or plated for colony formation assays as indicated. For glutamine pulse experiments in human ESCs, cells were initially plated at a density of 300,000 cells/well in a tissue-culture treated polystyrene 12-well plate coated with vitronectin (Thermo Fisher Scientific, A14700) in E8 medium (Thermo Fisher Scientific, A1517001) containing 10 uM ROCK inhibitor Y-27632 (Selleck Chemicals S1049). […] Cells were evaluated for GFP and DAPI on either a LSRFortessa or LSR-II machine and FACSDiva software ([…] Dickinson). […] Nanog-GFP expression was measured by GFP mean fluorescence intensity and quantified using FlowJo v9.0. […]

## COC(=O)CCC(=O)C(=O)OC [cell-permeable αKG, dimethyl-α-ketoglutarate]
ESCs [1]; 4 mM DM-αKG added during 24 h glutamine withdrawal, FIG. 3H
  benefit of the glutamine withdrawal pulse on self-renewal (colony formation): abrogated the benefit of the pulse
ESCs [1]; 24 h pulse, 24 h recovery before plating, FIG. 3G, 7G
  self-renewal capacity of the ESC population after pulsed treatment (colony formation): no durable effect
ESCs [2]; 48 h glutamine-free medium, FIG. 2G, 2H
  survival and proliferation in the absence of glutamine (population doublings): capable of rescuing survival and proliferation in the absence of glutamine
ESCs [2]; S/L culture, FIG. 2A, 6A-6B
  proliferation, viability and self-renewal of ESCs under glutamine withdrawal: sufficient to compensate for glutamine withdrawal
Nanog-GFP ESCs
  Nanog-GFP expression after pulsed treatment: transiently increase Nanog-GFP expression
